Experimental data taken from article PMC11372264, “^61Cu-PSMA–Targeted PET for Prostate Cancer: From Radiotracer Development to First-in-Human Imaging” (Journal of Nuclear Medicine, 2024).

How the values were obtained:
[1] = Lipophilicity: distribution coefficient in 1:1 1-octanol/phosphate-buffered saline at pH 7.4; type: physicochemical
Protocol: (§1) The lipophilicity of [^61Cu]Cu-DOTAGA-PSMA-I&T and [^61Cu]Cu-NODAGA-PSMA-I&T was assessed by determining the distribution coefficient in a 1:1 mixture of 1-octanol–to–phosphate-buffered saline at pH 7.4, in comparison with all reference radiotracers. Inhibitory concentration of 50% (IC50) was assessed by competition binding on lymph node carcinoma of the prostate (LNCaP) using ((S)-1-carboxy-5-(4-(-^125I-iodo-benzamido)pentyl)carbamoyl)-L-glutamic acid as the reference radioligand. Cellular uptake and distribution were assessed in LNCaP cells at 5, 15, 30, 60, and 120 min after exposure to the radioligand at 37°C, either alone or in the presence of 10 µM 2-(phosphonomethyl)pentanedioic acid to distinguish between specific and nonspecific uptake.

[2] = test system: LNCaP cells; assay: Cellular uptake and distribution (surface-bound, internalized) in LNCaP cells; type: cell-based; details: 1 h, 37°C
Protocol: as §1
FIGURE 1. In vitro assessment in LNCaP cells after 1 h at 37°C. (A) Competition binding activity curves of ^natCu-DOTAGA-PSMA-I&T, ^natCu-NODAGA-PSMA-I&T, and ^natGa-PSMA-11 on LNCaP cells after 1 h of incubation on ice, using ((S)-1-carboxy-5-(4-(-^125I-iodo-benzamido)pentyl)carbamoyl)-L-glutamic acid ([^125I-BA]KuE) at concentration of 0.2 nM as reference radioligand. (B) Cellular uptake (surface-bound + internalized). Cell surface–bound and internalized fractions are indicated. Results represent mean ± SD of specific (total − nonspecific) uptake from minimum of 2 separate experiments, each in triplicate.

[3] = test system: LNCaP xenografts; assay: Biodistribution in LNCaP xenografts; type: in vivo, mice
Protocol: All animal experiments were conducted in accordance with Swiss animal welfare laws and regulations under license number 30515 granted by the Veterinary Office, Department of Health, Canton Basel-Stadt, Switzerland. Male athymic nude-Foxn1^nu/Foxn1^+ mice (Envigo), 4–6 wk old, were inoculated subcutaneously on the shoulder with 10^7 LNCaP cells, freshly suspended in a 1:1 ratio of sterile minimum essential medium with basal medium Eagle and Matrigel. The tumors were allowed to grow to a volume of approximately 200 mm^3.
The biodistribution of [^61Cu]Cu-DOTAGA-PSMA-I&T and [^61Cu]Cu-NODAGA-PSMA-I&T (100 µL/200 pmol/2–3 MBq) was compared with that of [^68Ga]Ga-DOTAGA-PSMA-I&T, [^68Ga]Ga-NODAGA-PSMA-I&T, and [^68Ga]Ga-PSMA-11 (100 µL/200 pmol/3–5 MBq), as well as [^18F]PSMA-1007 (100 µL/70 pmol/15 MBq). This comparison was conducted at 1 h after injection for all radiotracers and at 4 h after injection for the ^61Cu-labeled tracers and [^18F]PSMA-1007. The specificity of the ^61Cu-labeled tracers was assessed at 1 h after injection by blocking studies with 2-(phosphonomethyl)pentanedioic acid (100 µL/1.3 µmol) being injected 3–5 min before the injection of the radiotracer.

[4] = In vivo metabolic stability (radio-HPLC of urine, liver and kidney homogenates); design: species or system BALB/c mice; details: 1 h after injection
Protocol: The stability of [^61Cu]Cu-DOTAGA-PSMA-I&T and [^61Cu]Cu-NODAGA-PSMA-I&T was assessed by radio–reversed-phase high-performance liquid chromatography in urine and in liver and kidney homogenates from healthy BALB/c mice after injection of 100 µL/400 pmol/8–9 MBq of each radiotracer. Details are provided in the supplemental materials.

[5] = Stability of radiotracer at room temperature (radiochemical purity over time); type: physicochemical; details: 24 MBq/nmol, 4 h
Protocol: [^61Cu]Cu-DOTAGA-PSMA-I&T and [^61Cu]Cu-NODAGA-PSMA-I&T were synthesized with radiolabeling yield of more than 98% and radiochemical purity of more than 97% (radio–high-performance liquid chromatography analysis) at an apparent molar activity of 24 MBq/nmol. Thus, no purification was required after labeling. Although [^61Cu]Cu-DOTAGA-PSMA-I&T needed elevated temperature (95°C) and 15 min of reaction time, [^61Cu]Cu-NODAGA-PSMA-I&T was synthesized at room temperature within 5 min. After 4 h at room temperature, the radiochemical purity of [^61Cu]Cu-DOTAGA-PSMA-I&T dropped to approximately 90%, whereas it remained stable (∼97%) for [^61Cu]Cu-NODAGA-PSMA-I&T. All analytic data and quality control results are provided in Supplemental Figures 1 and 2 and in Supplemental Tables 1 and 2.
With inexpensive ^natNi as the starting material, highly pure ^61Cu could be produced with radionuclidic purity exceeding 99.99% at 12 h after synthesis (details on the production will be published elsewhere). The preparation of [^61Cu]Cu-NODAGA-PSMA-I&T was performed in widely used buffers at room temperature within 5 min. […] High labeling yields and suitable molar activities for clinical use eliminate the need for any purification step after labeling. […]

[6] = 1 h after injection, blocking with 2-(phosphonomethyl)pentanedioic acid 1.3 µmol

For O=C([O-])CN1CCN(CC(=O)O)CCN(CC(=O)[O-])CCN(C(CCC(=O)N[C@H](Cc2ccc(O)c(I)c2)C(=O)N[C@H](Cc2ccccc2)C(=O)N[C@H](CCCCNC(=O)CCCCCCC(=O)NCCCC[C@H](NC(=O)N[C@@H](CCC(=O)O)C(=O)O)C(=O)O)C(=O)O)C(=O)O)CC1.[61Cu+2] (stereo partly drawn) [[^61Cu]Cu-DOTAGA-PSMA-I&T, DOTAGA-(l-y)fk(sub-KuE)], the logDpH7.4 [1] was −2.69 ± 0.44, the “Cellular uptake (surface-bound + internalized)” value ([2]; specific uptake) was 26.6% ± 1.3% and the Internalized fraction ([2]; % of applied activity) was 13.3 ± 0.5%. For the same compound, the Surface-bound fraction ([2]; % of applied activity) was 13.4 ± 0.8%, the “Biodistribution, Adrenals” value ([3]; 1 h after injection) was 9.35 ± 1.50 %IA/g and the “Biodistribution, Blood” value ([3]; 1 h after injection) was 2.06 ± 0.24 %IA/g. The “Biodistribution, Femur” value ([3]; 1 h after injection) was 2.31 ± 0.36 %IA/g, the “Biodistribution, Heart” value ([3]; 1 h after injection) was 3.73 ± 0.32 %IA/g and the “Biodistribution, Intestine” value ([3]; 1 h after injection) was 8.95 ± 0.62 %IA/g. The “Biodistribution, Kidneys” value ([3]; 1 h after injection) was 57.1 ± 6.3 %IA/g, the “Biodistribution, Liver” value ([3]; 1 h after injection) was 19.3 ± 3.3 %IA/g and the “Biodistribution, Lung” value ([3]; 1 h after injection) was 6.35 ± 0.35 %IA/g. The “Biodistribution, Muscles” value ([3]; 1 h after injection) was 1.00 ± 0.05 %IA/g, the “Biodistribution, Pancreas” value ([3]; 1 h after injection) was 2.82 ± 0.67 %IA/g and the “Biodistribution, Salivary glands” value ([3]; 1 h after injection) was 5.60 ± 1.39 %IA/g. The “Biodistribution, Spleen” value ([3]; 1 h after injection) was 4.64 ± 1.35 %IA/g, the “Biodistribution, Stomach” value ([3]; 1 h after injection) was 7.77 ± 0.62 %IA/g and the “Biodistribution, Tumor (tumor uptake)” value ([3]; 1 h after injection) was 6.06 ± 0.25 %IA/g. The Tumor-to-Adrenals ratio ([3]; 1 h after injection) was 0.66 ± 0.13, the Tumor-to-Blood ratio ([3]; 1 h after injection) was 2.97 ± 0.23 and the Tumor-to-Intestine ratio ([3]; 1 h after injection) was 0.68 ± 0.07. For the same compound, the Tumor-to-Kidneys ratio ([3]; 1 h after injection) was 0.11 ± 0.01, the Tumor-to-Liver ratio ([3]; 1 h after injection) was 0.32 ± 0.05 and the Tumor-to-Muscles ratio ([3]; 1 h after injection) was 6.08 ± 0.22. The Tumor-to-Salivary glands ratio ([3]; 1 h after injection) was 1.14 ± 0.34, the Tumor-to-Spleen ratio ([3]; 1 h after injection) was 1.37 ± 0.29 and the “Biodistribution, Adrenals” value [3, 6] was 3.25 ± 0.92 %IA/g. The “Biodistribution, Blood” value [3, 6] was 1.36 ± 0.15 %IA/g, the “Biodistribution, Femur” value [3, 6] was 1.50 ± 0.21 %IA/g and the “Biodistribution, Heart” value [3, 6] was 2.34 ± 0.11 %IA/g. For the same compound, the “Biodistribution, Intestine” value [3, 6] was 8.78 ± 2.18 %IA/g, the “Biodistribution, Kidneys” value [3, 6] was 8.76 ± 1.57 %IA/g and the “Biodistribution, Liver” value [3, 6] was 14.3 ± 1.7 %IA/g. For the same compound, the “Biodistribution, Lung” value [3, 6] was 5.62 ± 1.61 %IA/g, the “Biodistribution, Muscles” value [3, 6] was 0.63 ± 0.10 %IA/g and the “Biodistribution, Pancreas” value [3, 6] was 1.89 ± 0.34 %IA/g. For the same compound, the “Biodistribution, Salivary glands” value [3, 6] was 3.25 ± 0.94 %IA/g, the “Biodistribution, Spleen” value [3, 6] was 2.46 ± 0.47 %IA/g and the “Biodistribution, Stomach” value [3, 6] was 7.52 ± 1.58 %IA/g. The “Biodistribution, Tumor” value [3, 6] was 3.31 ± 0.26 %IA/g, the “Biodistribution, Adrenals” value ([3]; 4 h after injection) was 6.46 ± 2.38 %IA/g and the “Biodistribution, Blood” value ([3]; 4 h after injection) was 1.12 ± 0.24 %IA/g. The “Biodistribution, Femur” value ([3]; 4 h after injection) was 1.69 ± 0.25 %IA/g, the “Biodistribution, Heart” value ([3]; 4 h after injection) was 2.08 ± 0.33 %IA/g and the “Biodistribution, Intestine” value ([3]; 4 h after injection) was 7.74 ± 1.76 %IA/g. The “Biodistribution, Kidneys” value ([3]; 4 h after injection) was 22.1 ± 2.2 %IA/g, the “Biodistribution, Liver” value ([3]; 4 h after injection) was 13.9 ± 2.2 %IA/g and the “Biodistribution, Lung” value ([3]; 4 h after injection) was 4.67 ± 0.76 %IA/g. For the same compound, the “Biodistribution, Muscles” value ([3]; 4 h after injection) was 0.48 ± 0.08 %IA/g, the “Biodistribution, Pancreas” value ([3]; 4 h after injection) was 1.71 ± 0.23 %IA/g and the “Biodistribution, Salivary glands” value ([3]; 4 h after injection) was 2.31 ± 0.19 %IA/g. The “Biodistribution, Spleen” value ([3]; 4 h after injection) was 2.95 ± 0.73 %IA/g, the “Biodistribution, Stomach” value ([3]; 4 h after injection) was 7.10 ± 0.97 %IA/g and the “Biodistribution, Tumor (tumor uptake)” value ([3]; 4 h after injection) was 4.88 ± 0.63 %IA/g. For the same compound, the Tumor-to-Adrenals ratio ([3]; 4 h after injection) was 0.81 ± 0.22, the Tumor-to-Blood ratio ([3]; 4 h after injection) was 4.56 ± 1.49 and the Tumor-to-Intestine ratio ([3]; 4 h after injection) was 0.66 ± 0.23. The Tumor-to-Kidneys ratio ([3]; 4 h after injection) was 0.22 ± 0.04, the Tumor-to-Liver ratio ([3]; 4 h after injection) was 0.35 ± 0.05 and the Tumor-to-Muscles ratio ([3]; 4 h after injection) was 10.5 ± 2.8. For the same compound, the Tumor-to-Salivary glands ratio ([3]; 4 h after injection) was 2.13 ± 0.43, the Tumor-to-Spleen ratio ([3]; 4 h after injection) was 1.73 ± 0.46 and the “Blood values and background activity, fold higher than [^61Cu]Cu-NODAGA-PSMA-I&T” value ([3]; LNCaP xenografts) was “approximately 10 fold”. For the same compound, the “Release of ^61Cu in the liver” value [4] was “approximately 70%” and the “Radiochemical purity after 4 h at room temperature” value [5] was “approximately 90%”.
